Patent US12083101B2, “Biaryl derivatives as YAP/TAZ-TEAD protein-protein interaction inhibitors” (Novartis AG, priority 2020, dated 2024)
Like-named read-outs stand apart in the source and are kept apart here.

What was measured:
[1] = biological target: Avi-humanTEAD4 217-434 / Cy5 labeled humanYAP 60-100 (Homo sapiens (Human), UniProt Q15561); assay: TR-FRET YAP-TEAD4 in-vitro biochemical assay; assay type: binding; settings: 1 nM Avi-humanTEAD4 217-434, 20 nM Cy5-humanYAP 60-100, 1 h room temperature
Avi-humanTEAD4 217-434 / Cy5 labeled humanYAP 60-100, sequence (Q15561 217-434): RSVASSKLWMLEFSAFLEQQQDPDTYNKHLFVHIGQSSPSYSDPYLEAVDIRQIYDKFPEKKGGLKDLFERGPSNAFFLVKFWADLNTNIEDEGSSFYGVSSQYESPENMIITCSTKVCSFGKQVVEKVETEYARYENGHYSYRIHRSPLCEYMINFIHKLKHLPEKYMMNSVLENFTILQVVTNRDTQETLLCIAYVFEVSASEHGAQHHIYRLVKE

[2] = system: NCI-H2052 Tet-On shYAP_2371 pLenti6 MCAT_Luc cells (YAP-dependent transcription); assay: YAP reporter gene activity assay (MCAT-luciferase), NCI-H2052; assay type: cell-based; settings: 24 hours incubation, BrightGlo luminescence
Method in brief: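 NCI-H2052 cells carrying an MCAT-luciferase reporter and a tetracycline-inducible YAP 3′UTR shRNA were treated with eleven 2-fold compound dilutions (0.1% DMSO) for 24 h at 37 °C. BrightGlo luminescence was background-subtracted and expressed as % of DMSO control. IC50 came from a four-parameter fit; MKN-45/Ubc-luc cells served as the specificity counterscreen.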

[3] = system: NCI-H2052 Tet-On shYAP_2371 pLenti6 MCAT_Luc cells; assay: Proliferation assay (resazurin), NCI-H2052; assay type: cell-based; settings: 72 hours incubation
Method in brief: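 The NCI-H2052 line carries a Tet-inducible shRNA against the YAP1 3′UTR and an MCAT luciferase reporter. The day after seeding, it received eleven 2-fold compound dilutions at 0.1% DMSO, and viability was read by resazurin fluorescence.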

MKN-45/Ubc-luc cells [4] = assay: Proliferation assay (resazurin), MKN-45; assay type: cell-based; settings: 72 hours incubation
MKN-45/Ubc-luc cells [5] = assay: Reporter gene specificity control (Ubc-luciferase), MKN-45
[6] = Homo sapiens, MKN-45, 24 h, read-out: Reporter gene assay MKN-45 IC50 [μM], MKN-45/Ubc-luc cells (YAP deleted, specificity control), 24 hours incubation
[7] = read-out: Reporter gene assay MKN-45 IC50, MKN-45/Ubc-luc cells (YAP deleted, specificity control), 24 hours incubation

Row | IC50 [1] [nM] | IC50 ([2]; Homo sapiens, NCI-H2052, 24 h) [nM] | GI50 ([3]; Homo sapiens, NCI-H2052, 72 h) [nM] | GI50 (MKN-45/Ubc-luc cells [4]; Homo sapiens) [nM] | IC50 (MKN-45/Ubc-luc cells [5]; [6]) [µM] | IC50 [2] [nM] | GI50 [3] [nM] | GI50 (MKN-45/Ubc-luc cells [4]) [nM] | IC50 (MKN-45/Ubc-luc cells [5]; [7]) [µM] | Compound
1 | 6 | 65 | 141 | > 10000 | > 10 |  |  |  |  | COc1ccc(C(N)=O)c(-c2c(Cl)c(F)cc3c2[C@H](C)[C@@](CN[C@H]2CC[C@](C)(O)CC2)(c2cccnc2)O3)c1F (atropisomer, axis not shown) [Example 127, 2-((2S,3S,4S)-5-Chloro-6-fluoro-2-((((trans)-4-hydroxy-4-methylcyclohexyl)amino)methyl)-3-methyl-2-(pyridin-3-yl)-2,3-dihydrobenzofuran-4-yl)-3-fluoro-4-methoxybenzamide]
2 | 3 | 161 | 161 | > 10000 | > 10 |  |  |  |  | COc1ccc(C(N)=O)c(-c2c(Cl)c(F)cc3c2C[C@@](CN)(c2ccccc2)O3)c1F (atropisomer, axis not shown) [Example 33, 2-((2S,4S)-2-(aminomethyl)-5-chloro-6-fluoro-2-phenyl-2,3-dihydrobenzofuran-4-yl)-3-fluoro-4-methoxybenzamide]
3 | 22 | 960 | 1930 | > 10000 | > 10 |  |  |  |  | COc1ccc(C(N)=O)c(-c2c(Cl)ccc3c2[C@H](O)[C@@](CN)(c2cccnc2OC)O3)c1F (atropisomer, axis not shown) [Example 91, 2-((2S,3S,4S)-2-(Aminomethyl)-5-chloro-3-hydroxy-2-(2-methoxypyridin-3-yl)-2,3-dihydrobenzofuran-4-yl)-3-fluoro-4-methoxybenzamide]
4 | 1 | 10 | 15 | > 5500 | > 5.5 |  |  |  |  | C[C@H]1c2c(cc(F)c(Cl)c2-c2c(C(N)=O)ccc(OCCO)c2F)O[C@]1(CNC1CCC1)c1ccccc1 (atropisomer, axis not shown) [Example 118, 2-((2S,3S,4S)-5-chloro-2-((cyclobutylamino)methyl)-6-fluoro-3-methyl-2-phenyl-2,3-dihydrobenzofuran-4-yl)-3-fluoro-4-(2-hydroxyethoxy)benzamide]
5 | 1 |  |  |  |  | 78 | 182 | > 10000 | > 10 | COc1ccc(C(N)=O)c(-c2c(Cl)ccc3c2C[C@@](CN[C@H]2CC[C@@H](O)CC2)(c2ccccc2)O3)c1F (relative stereo) [Example 27b, 2-((2S,4S)-5-chloro-2-(((cis-4-hydroxycyclohexyl)amino)methyl)-2-phenyl-2,3-dihydrobenzofuran-4-yl)-3-fluoro-4-methoxybenzamide]
6 | 5 | 80 | 111 | > 10000 | > 10 |  |  |  |  | C[C@]1(O)CC[C@H](NC[C@@]2(c3ccccc3)Cc3c(cc(F)c(Cl)c3-c3c(C(N)=O)ccc(-n4ccnc4)c3F)O2)CC1 (atropisomer, axis not shown) [Example 69a, 2-((2S,4S)-5-chloro-6-fluoro-2-((((trans)-4-hydroxy-4-methylcyclohexyl)amino)methyl)-2-phenyl-2,3-dihydrobenzofuran-4-yl)-3-fluoro-4-(1H-imidazol-1-yl)benzamide]
7 | 124 | 2920 | 6880 | > 10000 | > 10 |  |  |  |  | CNc1ccc(C(N)=O)c(-c2c(Cl)ccc3c2C[C@@](CN)(c2ccccc2)O3)c1F (atropisomer, axis not shown) [Example 20, 2-((2S,4S)-2-(Aminomethyl)-5-chloro-2-phenyl-2,3-dihydrobenzofuran-4-yl)-3-fluoro-4-(methylamino)benzamide]
8 | 4 | 50 | 35 | > 10000 | > 10 |  |  |  |  | CNC[C@@]1(c2ccccc2)Cc2c(cc(F)c(Cl)c2-c2c(C(N)=O)cnc(OCCOC)c2F)O1 (atropisomer, axis not shown) [Example 47, 4-((2S,4S)-5-Chloro-6-fluoro-2-((methylamino)methyl)-2-phenyl-2,3-dihydrobenzofuran-4-yl)-5-fluoro-6-(2-methoxyethoxy)nicotinamide]
9 | 4 |  |  |  |  | 62 | 50 | 7000 | 13 | CNC(=O)c1ccc(OC)c(F)c1-c1c(Cl)c(F)cc2c1C[C@](c1ccccc1)([C@@H]1CCCN1)O2 [Example 175, 2-((2S,4S)-5-Chloro-6-fluoro-2-phenyl-2-((S)-pyrrolidin-2-yl)-2,3-dihydrobenzofuran-4-yl)-3-fluoro-4-methoxy-N-methylbenzamide]
10 | 2 | 116 | 73 | 13000 | 15.5 |  |  |  |  | COc1ccc(C(N)=O)c(-c2c(Cl)c(F)cc3c2C[C@](c2ccccc2)([C@@H]2CCCN2)N3)c1F (atropisomer, axis not shown) [Example 171, 2-((2S,4S)-5-Chloro-6-fluoro-2-phenyl-2-((S)-pyrrolidin-2-yl)indolin-4-yl)-3-fluoro-4-methoxybenzamide]
11 | 2 | 18 | 23 | > 10000 | > 10 |  |  |  |  | C[C@H](O)COc1ccc(C(N)=O)c(-c2c(Cl)c(F)cc3c2[C@H](C)[C@@](CN[C@H]2CC[C@](C)(O)CC2)(c2ccccc2)O3)c1F (atropisomer, axis not shown) [Example 114a, 2-((2S,3S,4S)-5-chloro-6-fluoro-2-((((trans)-4-hydroxy-4-methylcyclohexyl)amino)methyl)-3-methyl-2-phenyl-2,3-dihydrobenzofuran-4-yl)-3-fluoro-4-((S)-2-hydroxypropoxy)benzamide]
12 | 2 | 39 | 72 | > 10000 | 9.8 |  |  |  |  | NC(=O)c1ccc(OC(F)F)c(F)c1-c1c(Cl)c(F)cc2c1C[C@@](CN[C@H]1CC[C@H](O)CC1)(c1ccccc1)O2 (atropisomer, axis not shown) [Example 72, 2-((2S,4S)-5-chloro-6-fluoro-2-(((trans-4-hydroxycyclohexyl)amino)methyl)-2-phenyl-2,3-dihydrobenzofuran-4-yl)-4-(difluoromethoxy)-3-fluorobenzamide]
13 | 21 | 144 | 310 | > 10000 | > 20 |  |  |  |  | CNC[C@@]1(c2ccccc2)Cc2c(ccc(Cl)c2-c2c(C(=O)NC)ccc(OC)c2F)O1 (atropisomer, axis not shown) [Example 26, 2-((2S,4S)-5-Chloro-2-((methylamino)methyl)-2-phenyl-2,3-dihydrobenzofuran-4-yl)-3-fluoro-4-methoxy-N-methylbenzamide]
14 | 7 | 247 | 627 | 8640 | > 10 |  |  |  |  | NC(=O)c1ccc(OC(F)F)c(F)c1-c1c(Cl)ccc2c1C[C@@](CNC1CCCCC1)(c1ccccc1)O2 (atropisomer, axis not shown) [Example 135, 2-((2S,4S)-5-Chloro-2-((cyclohexylamino)methyl)-2-phenyl-2,3-dihydrobenzofuran-4-yl)-4-(difluoromethoxy)-3-fluorobenzamide]
15 | 8 | 136 | 256 | > 10000 | > 10 |  |  |  |  | CO[C@H]1c2c(cc(F)c(Cl)c2-c2c(C(N)=O)ccc(OCCO)c2F)O[C@@]1(c1ccccc1)C1CCCN1 (stereo partly drawn) [Example 166, 2-((2S,3S,4S)-5-chloro-6-fluoro-3-methoxy-2-phenyl-2-(pyrrolidin-2-yl)-2,3-dihydrobenzofuran-4-yl)-3-fluoro-4-(2-hydroxyethoxy)benzamide]
16 | 3 | 20 | 22 | > 10000 | > 10 |  |  |  |  | C[C@H](O)COc1ccc(C#N)c(-c2c(Cl)c(F)cc3c2[C@H](C)[C@@](CN[C@H]2CC[C@](C)(O)CC2)(c2ccccc2)O3)c1F (atropisomer, axis not shown) [Example 120, 2-((2S,3S,4S)-5-Chloro-6-fluoro-2-((((trans)-4-hydroxy-4-methylcyclohexyl)amino)methyl)-3-methyl-2-phenyl-2,3-dihydrobenzofuran-4-yl)-3-fluoro-4-((S)-2-hydroxypropoxy)benzonitrile]
17 | 2 | 21 | 29 | > 10000 | > 10 |  |  |  |  | CNC[C@]1(c2ccccc2)Oc2cc(F)c(Cl)c(-c3c(C(=O)NC)ccc(OCCO)c3F)c2[C@@H]1C (atropisomer, axis not shown) [Example 113, 2-((2S,3S,4S)-5-Chloro-6-fluoro-3-methyl-2-((methylamino)methyl)-2-phenyl-2,3-dihydrobenzofuran-4-yl)-3-fluoro-4-(2-hydroxyethoxy)-N-methylbenzamide]
